Measurements published in ChEMBL document CHEMBL4229455, “Synthesis and anticancer activity of novel bisindolylhydroxymaleimide derivatives with potent GSK-3 kinase inhibition” (Bioorg Med Chem, 2018).

Experiments:
Format in all cases: functional
SK-OV-3 = assay: Cytotoxicity against human SKOV3 cells assessed as cell growth at 0.1 uM after 48 hrs by SRB assay relative to control; settings: SK-OV-3, 48 h, read-out: Activity
SF-268 = assay: Cytotoxicity against human SF268 cells after 48 hrs by SRB assay; settings: SF-268, 48 h
Hs-578T [1] = assay: Cytotoxicity against human Hs 578T cells assessed as cell growth at 100 uM after 48 hrs by SRB assay relative to control; settings: read-out: Activity
MOLT-4 [2] = assay: Cytotoxicity against human MOLT4 cells assessed as cell growth at 0.1 uM after 48 hrs by SRB assay relative to control; settings: MOLT-4, 48 h, read-out: Activity
NCI/ADR-RES = assay: Cytotoxicity against human NCI-ADR-RES cells assessed as cell growth at 100 uM after 48 hrs by SRB assay relative to control; settings: read-out: Activity
UACC-62 [3] = assay: Cytotoxicity against human UACC62 cells assessed as cell growth at 0.01 uM after 48 hrs by SRB assay relative to control; settings: UACC-62, 48 h, read-out: Activity
SR [4] = assay: Cytotoxicity against human SR cells assessed as cell growth at 0.1 uM after 48 hrs by SRB assay relative to control; settings: read-out: Activity
SF-539 [5] = assay: Cytotoxicity against human SF539 cells assessed as cell growth at 0.1 uM after 48 hrs by SRB assay relative to control; settings: SF-539, 48 h, read-out: Activity
NCI-H23 [6] = assay: Cytotoxicity against human NCI-H23 cells after 48 hrs by SRB assay; settings: NCI-H23, 48 h
SW-620 [7] = assay: Cytotoxicity against human SW620 cells assessed as cell growth at 0.01 uM after 48 hrs by SRB assay relative to control; settings: SW-620, 48 h, read-out: Activity
IGROV-1 = assay: Cytotoxicity against human IGROV1 cells assessed as cell growth at 0.01 uM after 48 hrs by SRB assay relative to control; settings: IGROV-1, 48 h, read-out: Activity
SNB-19 = assay: Cytotoxicity against human SNB19 cells after 48 hrs by SRB assay; settings: SNB-19, 48 h
BT-549 = assay: Cytotoxicity against human BT549 cells assessed as cell growth at 100 uM after 48 hrs by SRB assay relative to control; settings: BT-549, 48 h, read-out: Activity
SF-539 [8] = assay: Cytotoxicity against human SF539 cells after 48 hrs by SRB assay; settings: SF-539, 48 h
SW-620 [9] = assay: Cytotoxicity against human SW620 cells assessed as cell growth at 100 uM after 48 hrs by SRB assay relative to control; settings: SW-620, 48 h, read-out: Activity
OVCAR-5 = assay: Cytotoxicity against human OVCAR5 cells assessed as cell growth at 0.01 uM after 48 hrs by SRB assay relative to control; settings: OVCAR-5, 48 h, read-out: Activity
MOLT-4 [10] = assay: Cytotoxicity against human MOLT4 cells assessed as cell growth at 100 uM after 48 hrs by SRB assay relative to control; settings: MOLT-4, 48 h, read-out: Activity
OVCAR-3 = assay: Cytotoxicity against human OVCAR3 cells assessed as cell growth at 100 uM after 48 hrs by SRB assay relative to control; settings: OVCAR-3, 48 h, read-out: Activity
UO-31 = assay: Cytotoxicity against human UO31 cells assessed as cell growth at 1 uM after 48 hrs by SRB assay relative to control; settings: UO-31, 48 h, read-out: Activity
M14 [11] = assay: Cytotoxicity against human M14 cells assessed as cell growth at 1 uM after 48 hrs by SRB assay relative to control; settings: M14, 48 h, read-out: Activity
SNB-75 = assay: Cytotoxicity against human SNB75 cells assessed as cell growth at 100 uM after 48 hrs by SRB assay relative to control; settings: SNB-75, 48 h, read-out: Activity
HCT-15 = assay: Cytotoxicity against human HCT15 cells assessed as cell growth at 100 uM after 48 hrs by SRB assay relative to control; settings: HCT-15, 48 h, read-out: Activity
HL-60(TB) = assay: Cytotoxicity against human HL-60(TB) cells assessed as cell growth at 1 uM after 48 hrs by SRB assay relative to control; settings: HL-60, 48 h, read-out: Activity
COLO 205 = assay: Cytotoxicity against human COLO205 cells assessed as cell growth at 0.1 uM after 48 hrs by SRB assay relative to control; settings: COLO 205, 48 h, read-out: Activity
UACC-62 [12] = assay: Cytotoxicity against human UACC62 cells assessed as cell growth at 1 uM after 48 hrs by SRB assay relative to control; settings: UACC-62, 48 h, read-out: Activity
NCI-H460 = assay: Cytotoxicity against human NCI-H460 cells assessed as cell growth at 0.1 uM after 48 hrs by SRB assay relative to control; settings: NCI-H460, 48 h, read-out: Activity
Hs-578T [13] = assay: Cytotoxicity against human Hs 578T cells assessed as cell growth at 1 uM after 48 hrs by SRB assay relative to control; settings: read-out: Activity
CCRF-CEM = assay: Cytotoxicity against human CCRF-CEM cells assessed as cell growth at 0.1 uM after 48 hrs by SRB assay relative to control; settings: read-out: Activity
M14 [14] = assay: Cytotoxicity against human M14 cells assessed as cell growth at 0.1 uM after 48 hrs by SRB assay relative to control; settings: M14, 48 h, read-out: Activity
HT-29 = assay: Cytotoxicity against human HT-29 cells assessed as cell growth at 100 uM after 48 hrs by SRB assay relative to control; settings: HT-29, 48 h, read-out: Activity
MDA-MB-435 = assay: Cytotoxicity against human MDA-MB-435 cells assessed as cell growth at 0.1 uM after 48 hrs by SRB assay relative to control; settings: MDA-MB-435, 48 h, read-out: Activity
SR [15] = assay: Cytotoxicity against human SR cells assessed as cell growth at 1 uM after 48 hrs by SRB assay relative to control; settings: read-out: Activity
HCC 2998 = assay: Cytotoxicity against human HCC2998 cells assessed as cell growth at 1 uM after 48 hrs by SRB assay relative to control; settings: HCC 2998, 48 h, read-out: Activity
NCI-H23 [16] = assay: Cytotoxicity against human NCI-H23 cells assessed as cell growth at 1 uM after 48 hrs by SRB assay relative to control; settings: NCI-H23, 48 h, read-out: Activity
Malme-3M = assay: Cytotoxicity against human MALME-3M cells assessed as cell growth at 100 uM after 48 hrs by SRB assay relative to control; settings: read-out: Activity
MOLT-4 [17] = assay: Cytotoxicity against human MOLT4 cells assessed as cell growth at 0.01 uM after 48 hrs by SRB assay relative to control; settings: MOLT-4, 48 h, read-out: Activity
DU-145 = assay: Cytotoxicity against human DU145 cells assessed as cell growth at 0.1 uM after 48 hrs by SRB assay relative to control; settings: DU-145, 48 h, read-out: Activity

`Cn1cc(C2=C(c3cn(C)c4ncccc34)C(=O)NC2=O)c2ccccc21` was tested, and the growth at 0.1 µM (SK-OV-3) was 102%, the GI50 (SF-268) was 4.86 µM and the TGI (SF-268) was 48.4 µM. It also gave a CC50 (SF-268; read-out: LC50 (the source's name)) greater than 100 µM, a growth at 100 µM (Hs-578T [1]) of -37% and a growth at 0.1 µM (MOLT-4 [2]) of 119%. For the same compound, the growth at 100 µM (NCI/ADR-RES) was -19%, the growth at 0.01 µM (UACC-62 [3]) was 97% and the growth at 0.1 µM (SR [4]) was 88%. For the same compound, the growth at 0.1 µM (SF-539 [5]) was 107%, the GI50 (NCI-H23 [6]) was 4.18 µM and the TGI (NCI-H23 [6]) was 26.7 µM. For the same compound, the growth at 0.01 µM (SW-620 [7]) was 96%, the growth at 0.01 µM (IGROV-1) was 98% and the GI50 (SNB-19) was 6.31 µM. For the same compound, the TGI (SNB-19) was 61.1 µM, the growth at 100 µM (BT-549) was -30% and the GI50 (SF-539 [8]) was 2.09 µM. It also gave a TGI (SF-539 [8]) of 5.85 µM, a growth at 100 µM (SW-620 [9]) of -19% and a growth at 0.01 µM (OVCAR-5) of 98%. The growth at 100 µM (MOLT-4 [10]) was -24%, the growth at 100 µM (OVCAR-3) was -19% and the growth at 1 µM (UO-31) was 75%. For the same compound, the growth at 1 µM (M14 [11]) was 110%, the growth at 100 µM (SNB-75) was -51% and the growth at 100 µM (HCT-15) was -6%. The growth at 1 µM (HL-60(TB)) was 113%, the growth at 0.1 µM (COLO 205) was 109% and the growth at 1 µM (UACC-62 [12]) was 89%. The growth at 0.1 µM (NCI-H460) was 97%, the growth at 1 µM (Hs-578T [13]) was 48% and the growth at 0.1 µM (CCRF-CEM) was 81%. It also gave a growth at 0.1 µM (M14 [14]) of 108%, a growth at 100 µM (HT-29) of -10% and a growth at 0.1 µM (MDA-MB-435) of 93%. For the same compound, the growth at 1 µM (SR [15]) was 51%, the growth at 1 µM (HCC 2998) was 85% and the growth at 1 µM (NCI-H23 [16]) was 84%. The growth at 100 µM (Malme-3M) was -11%, the growth at 0.01 µM (MOLT-4 [17]) was 103% and the growth at 0.1 µM (DU-145) was 102%.
